Experimental data from patent US9364479B2, “Use of a receptor-type kinase modulator for treating polycystic kidney disease” (SYMPHONY EVOLUTION, INC., priority 2010, dated 2016).

How the values were obtained:
in vivo = assay: in vivo; design: species or system mice, rats, dogs, and monkeys
Experimental: The nonclinical Pharmacokinetics (PK) of XL-647 was studied in mice, rats, dogs, and monkeys. Animals were dosed either once or daily over several days, as described in Table 21 and 22 below. A summary of results can also be found in Tables 21 and 22 below. […] Mean tmax values were approximately 4 to 8 hours, and plasma terminal half-lives ranged from 9.41 to 20.9 hours.

EphB4 = target: T1, EphB4 (Homo sapiens, UniProt P54760); assay: Radiometric 33P-phosphoryl transfer kinase assay; format: biochemical; conditions: ATP at Km
T1 construct: residues E605-E890 of human EphB4 containing a six histidine NH2-terminal tag; His6 (N); made in house; host or cells: baculovirus expression system
T1 sequence (P54760 605-890): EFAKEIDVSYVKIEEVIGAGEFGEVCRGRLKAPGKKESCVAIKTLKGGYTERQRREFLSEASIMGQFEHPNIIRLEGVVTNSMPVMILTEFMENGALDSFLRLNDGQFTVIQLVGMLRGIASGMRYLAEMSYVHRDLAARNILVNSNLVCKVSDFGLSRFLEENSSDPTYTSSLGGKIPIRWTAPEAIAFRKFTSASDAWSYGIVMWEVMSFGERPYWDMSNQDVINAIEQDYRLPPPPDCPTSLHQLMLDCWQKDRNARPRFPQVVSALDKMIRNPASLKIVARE
Experimental: (§1) Dose-response experiments were done using 10 different inhibitor concentrations in 384-well microtiter plates. The ATP concentration used for each assay was equivalent to the Km for each kinase. IC50 values were calculated by nonlinear regression analysis using the four-variable equation: Y=min+(max−min)/[1+([I]/IC50)N], where Y is the observed signal, [I] is the inhibitor concentration, min is the background signal in the absence of enzyme (0% enzyme activity), max is the signal in the absence of inhibitor (100% enzyme activity), IC50 is the inhibitor concentration required at 50% enzyme inhibition, and N represents the empirical Hill slope as a measure of cooperativity.
(§2) A radiometric ^33P-Phosphoryl transfer kinase assay was used to measure EphB4, insulin-like growth factor-I receptor (IGFR-1), and insulin receptor (IRK) activity. Reactions were performed in 384-well white, clear bottom, high-binding microtiter plates (Greiner). Plates were coated with 2 μg/well peptide substrate in a 50 μL volume. […] The coated plates were washed once with 50 μL assay buffer following overnight incubation at room temperature. Test compound and either 5 nmol/L EphB4 (residues E605-E890 of human EphB4 containing a six histidine NH2-terminal tag, expressed in a baculovirus expression system and purified using metal chelate chromatography), 4 nmol/L insulin-like growth factor-I receptor (residues M954-C1367 of human insulin-like growth factor-I receptor, Proqinase GmbH), or 15 nmol/L insulin receptor 1 (residues P948-S1343 of human insulin receptor 1, Proqinase) were combined with [^33P]g-ATP (5 μmol/L, 3.3 μCi/nmol) in a total volume of 20 μL. The reaction mixture was incubated at room temperature for 1.5 to 2.5 h and terminated by aspiration. The microtiter plates were subsequently washed six times with 0.05% Tween-PBS buffer. Scintillation fluid (50 μL/well) was added and incorporated ^33P was measured by liquid scintillation spectrometry using a MicroBeta scintillation counter (Perkin-Elmer).

IGF1R = target: T2, IGF1R (Homo sapiens, UniProt P08069); assay: Radiometric 33P-phosphoryl transfer kinase assay; format: biochemical; conditions: ATP at Km
T2 construct: residues M954-C1367 of human insulin-like growth factor-I receptor, Proqinase GmbH; purchased Proqinase GmbH
T2 sequence (P08069 954-1367): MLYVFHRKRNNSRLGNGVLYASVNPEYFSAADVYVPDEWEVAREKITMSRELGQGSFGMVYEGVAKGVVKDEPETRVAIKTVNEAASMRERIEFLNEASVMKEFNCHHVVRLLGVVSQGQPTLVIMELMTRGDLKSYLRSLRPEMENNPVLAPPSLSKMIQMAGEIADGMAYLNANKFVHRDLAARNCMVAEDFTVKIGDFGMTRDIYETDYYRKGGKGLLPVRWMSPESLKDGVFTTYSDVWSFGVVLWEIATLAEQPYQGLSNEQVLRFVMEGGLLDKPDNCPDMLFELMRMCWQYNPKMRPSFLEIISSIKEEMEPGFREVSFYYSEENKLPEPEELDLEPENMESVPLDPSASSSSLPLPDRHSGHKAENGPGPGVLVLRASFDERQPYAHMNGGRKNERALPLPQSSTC
Experimental: as §1, §2

InsR = target: T3, InsR (Homo sapiens, UniProt P06213); assay: Radiometric 33P-phosphoryl transfer kinase assay; format: biochemical; conditions: ATP at Km
T3 construct: residues P948-S1343 of human insulin receptor 1, Proqinase; purchased Proqinase
T3 sequence (P06213 987-1382): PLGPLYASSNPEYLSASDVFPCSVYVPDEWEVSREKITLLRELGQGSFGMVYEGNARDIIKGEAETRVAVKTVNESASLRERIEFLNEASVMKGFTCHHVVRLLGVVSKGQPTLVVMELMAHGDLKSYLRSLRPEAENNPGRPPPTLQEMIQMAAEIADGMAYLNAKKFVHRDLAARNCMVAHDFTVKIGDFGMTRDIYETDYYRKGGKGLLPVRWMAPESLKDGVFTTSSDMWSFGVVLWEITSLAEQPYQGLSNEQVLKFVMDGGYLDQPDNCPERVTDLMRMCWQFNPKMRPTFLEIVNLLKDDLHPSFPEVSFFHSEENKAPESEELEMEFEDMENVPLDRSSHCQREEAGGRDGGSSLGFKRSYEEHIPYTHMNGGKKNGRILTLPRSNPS
Experimental: as §1, §2

[1] = Clinical safety data, 159 subjects with cancer; conditions: human, in vivo
[2] = target: T4, Angiotensin II, AT1 (Human) (Homo sapiens, UniProt P30556); assay: NovaScreen assay; format: binding; conditions: read-out: Inhibition, 10 μM XL-647
T4 construct: NovaScreen
T4 sequence (P30556 whole entry): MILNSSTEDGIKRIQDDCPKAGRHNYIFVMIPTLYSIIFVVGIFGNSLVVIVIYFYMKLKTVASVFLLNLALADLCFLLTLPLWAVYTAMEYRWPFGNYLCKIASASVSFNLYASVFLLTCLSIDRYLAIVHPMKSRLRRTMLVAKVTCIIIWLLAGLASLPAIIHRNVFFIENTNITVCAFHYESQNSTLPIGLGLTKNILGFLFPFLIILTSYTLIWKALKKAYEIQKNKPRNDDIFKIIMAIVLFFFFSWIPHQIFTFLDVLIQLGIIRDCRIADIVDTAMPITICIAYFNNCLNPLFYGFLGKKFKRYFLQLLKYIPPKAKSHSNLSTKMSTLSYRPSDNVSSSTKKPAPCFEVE

EphA2 = EphA2 (Homo sapiens, UniProt P29317); assay: EphA2 autophosphorylation ELISA, PC-3 cells; format: cell-based; conditions: read-out: Cellular IC50, autophosphorylation
Chain of EphA2 (P29317 24-976): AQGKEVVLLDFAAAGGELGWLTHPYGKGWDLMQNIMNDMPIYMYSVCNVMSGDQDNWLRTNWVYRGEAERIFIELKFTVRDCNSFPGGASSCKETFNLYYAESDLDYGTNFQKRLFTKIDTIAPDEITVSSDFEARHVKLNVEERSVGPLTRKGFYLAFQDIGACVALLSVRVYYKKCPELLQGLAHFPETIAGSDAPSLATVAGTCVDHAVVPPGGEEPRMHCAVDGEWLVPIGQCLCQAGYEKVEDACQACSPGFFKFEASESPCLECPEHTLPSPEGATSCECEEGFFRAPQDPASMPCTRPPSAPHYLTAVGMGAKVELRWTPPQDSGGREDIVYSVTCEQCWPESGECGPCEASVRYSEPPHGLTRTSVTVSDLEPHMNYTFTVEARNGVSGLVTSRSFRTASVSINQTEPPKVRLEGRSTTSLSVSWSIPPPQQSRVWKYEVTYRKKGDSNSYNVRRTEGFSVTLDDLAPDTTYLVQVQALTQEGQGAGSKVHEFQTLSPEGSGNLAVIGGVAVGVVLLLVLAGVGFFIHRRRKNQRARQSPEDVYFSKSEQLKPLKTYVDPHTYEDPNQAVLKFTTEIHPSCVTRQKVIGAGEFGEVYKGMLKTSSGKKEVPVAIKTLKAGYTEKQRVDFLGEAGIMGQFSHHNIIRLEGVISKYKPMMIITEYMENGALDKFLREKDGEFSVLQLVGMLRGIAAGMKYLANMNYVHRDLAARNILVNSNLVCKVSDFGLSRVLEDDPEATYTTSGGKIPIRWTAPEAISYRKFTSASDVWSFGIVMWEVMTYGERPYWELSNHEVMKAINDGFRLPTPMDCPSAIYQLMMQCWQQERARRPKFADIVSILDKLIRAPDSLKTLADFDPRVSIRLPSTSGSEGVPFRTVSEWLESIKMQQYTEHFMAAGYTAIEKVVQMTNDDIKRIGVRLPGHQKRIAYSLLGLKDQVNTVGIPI
Experimental: The EphA2 autophosphorylation ELISA utilized PC-3 (ATCC) cells. Cells were seeded at 2.5×10^4 cells/well onto 96-well microtiter plates (Costar 3904), in DMEM (Cellgro) containing 10% FBS (Heat-Inactivated, Hyclone), 1% penicillin-streptomycin (Cellgro), and 1% NEAA solution (Cellgro). The cells were then incubated at 37° C., 5% CO2 for 16 h. Growth media was replaced with serum-free DMEM and cells were incubated for an additional 24 hr. […] Negative control wells were not treated with growth factor. After treatment, media was removed, the cell monolayer washed with cold PBS and immediately lysed with cold lysis buffer. Lysates were centrifuged and incubated into 96-well streptavidin-coated plates (Pierce) coated with biotin-conjugated, mouse anti-phosphotyrosine, PY20 (2 μg/ml, Calbiochem). Plates were incubated with rabbit polyclonal anti-EphA2, C-20 (1:500, Santa Cruz Biotechnology, Inc), followed by secondary antibody (HRP-conjugated, goat anti-rabbit IgG, 1:1000 from Cell Signaling) and the addition of a luminol-based substrate solution. Plates were read with a Victor spectrophotometer (Wallac).

[3] = tested on: Potassium Channel, ATP-Sensitive; assay: NovaScreen assay; format: binding
[4] = tested on: Calcium Channel, Type L (Dihydropyridine Site); assay: NovaScreen assay; format: binding
Bradykinin, BK2 = target: T5, Bradykinin, BK2 (Homo sapiens, UniProt P30411); assay: NovaScreen assay; format: binding; conditions: read-out: Inhibition, 10 μM XL-647
T5 construct: NovaScreen
T5 sequence (P30411 whole entry): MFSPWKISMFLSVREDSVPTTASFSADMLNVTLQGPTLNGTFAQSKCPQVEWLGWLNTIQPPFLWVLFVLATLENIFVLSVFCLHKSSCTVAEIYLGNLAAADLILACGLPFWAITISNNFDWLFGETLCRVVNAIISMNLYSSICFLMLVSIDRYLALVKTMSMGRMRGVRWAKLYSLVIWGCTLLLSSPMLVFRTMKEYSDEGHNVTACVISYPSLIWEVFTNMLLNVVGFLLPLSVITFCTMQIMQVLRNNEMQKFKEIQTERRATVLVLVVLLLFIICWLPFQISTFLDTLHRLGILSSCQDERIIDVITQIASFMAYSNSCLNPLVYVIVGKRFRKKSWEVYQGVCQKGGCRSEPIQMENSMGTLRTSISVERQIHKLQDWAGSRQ

EGFR WT (pCMV/Lx-1) = EGFR WT (pCMV/Lx-1) (Homo sapiens, UniProt P00533); assay: EGFR phosphorylation ELISA in transfected Lx-1 cells
Chain of EGFR WT (pCMV/Lx-1) (P00533 25-1210): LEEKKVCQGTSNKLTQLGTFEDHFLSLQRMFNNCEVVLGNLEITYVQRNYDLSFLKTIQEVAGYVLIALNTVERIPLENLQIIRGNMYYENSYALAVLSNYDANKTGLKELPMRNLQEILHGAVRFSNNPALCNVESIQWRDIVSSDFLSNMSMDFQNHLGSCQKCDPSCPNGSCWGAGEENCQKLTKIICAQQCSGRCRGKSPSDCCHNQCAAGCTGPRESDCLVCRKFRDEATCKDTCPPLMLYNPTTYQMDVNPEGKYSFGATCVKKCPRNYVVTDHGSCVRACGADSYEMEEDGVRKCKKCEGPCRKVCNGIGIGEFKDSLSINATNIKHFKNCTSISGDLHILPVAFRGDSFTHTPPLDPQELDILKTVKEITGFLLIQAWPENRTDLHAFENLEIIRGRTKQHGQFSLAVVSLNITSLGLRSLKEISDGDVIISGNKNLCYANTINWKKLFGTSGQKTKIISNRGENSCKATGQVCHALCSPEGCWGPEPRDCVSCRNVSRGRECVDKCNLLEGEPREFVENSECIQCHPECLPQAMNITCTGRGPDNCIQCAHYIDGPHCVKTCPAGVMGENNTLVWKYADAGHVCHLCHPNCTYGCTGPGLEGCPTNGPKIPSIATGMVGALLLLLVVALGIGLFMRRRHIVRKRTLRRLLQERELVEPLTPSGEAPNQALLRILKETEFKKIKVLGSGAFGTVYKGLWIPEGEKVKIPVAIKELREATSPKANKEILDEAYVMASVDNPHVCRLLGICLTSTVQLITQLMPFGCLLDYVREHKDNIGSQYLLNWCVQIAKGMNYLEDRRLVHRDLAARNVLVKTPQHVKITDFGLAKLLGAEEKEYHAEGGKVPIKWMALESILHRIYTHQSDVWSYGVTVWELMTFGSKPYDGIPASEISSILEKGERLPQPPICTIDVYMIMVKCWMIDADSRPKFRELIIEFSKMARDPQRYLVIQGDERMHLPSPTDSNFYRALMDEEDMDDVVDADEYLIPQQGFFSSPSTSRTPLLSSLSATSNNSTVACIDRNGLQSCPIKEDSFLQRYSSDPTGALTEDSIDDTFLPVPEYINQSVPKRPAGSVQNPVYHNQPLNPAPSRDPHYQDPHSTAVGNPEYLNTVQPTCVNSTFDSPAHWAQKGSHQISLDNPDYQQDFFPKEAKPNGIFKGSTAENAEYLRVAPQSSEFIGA
Text: Lx-1 cells were used because they lack background EGFR activity. A clone corresponding to the longest EGFR isoform (Genbank accession no. NM_005228.3/NP_005219.2 #21-176, Upstate Biotechnology) was used as a template to produce two mutant EGFR genes (coding for L858R and L861Q) by site-directed mutagenesis. The WT and the two sequence-verified mutants were transferred to a COOH-terminal Flag-tagged retroviral cytomegalovirus promoter-driven mammalian expression vector. The two Tet-On expression vectors, EGFR WT (Tet-On) and EGFRvIII (Tet-On), which were COOH-terminally Flag tagged, were generously provided by Dr. Abhijit Guha (University of Toronto, Toronto, Ontario, Canada).
Transient transfections of Lx-1 cells were done using Lipofectamine 2000 (Invitrogen) according to the manufacturer's protocol. For transfections of the WT, L858R, and L861Q constructs, 1 μg plasmid DNA was used for each transfection (each well of a 12-well plate). […]
For the EGFR phosphorylation ELISA, Reacti-Bind streptavidin-coated plates (Pierce) were coated with 2 μg/mL biotin-conjugated anti-Flag antibody (Sigma). […] Horseradish peroxidase activity was determined by reading the plates in a Victor2 plate reader following addition of the ELISA Femto substrate.

In the case of `COc1cc2c(Nc3ccc(Cl)c(Cl)c3F)ncnc2cc1OC[C@@H]1C[C@@H]2CN(C)C[C@@H]2C1` [XL-647, N-(3,4-dichloro-2-fluorophenyl)-7-({[(3aR,5r,6aS)-2-methyloctahydrocyclopenta[c]pyrrol-5-yl]methyl}oxy)-6-(methyloxy)quinazolin-4-amine], the accumulation in plasma (in vivo) is reported as under 2 fold, the “dose proportionality of AUC, in words” value (in vivo) is reported as “approximately dose proportionally over lower dose ranges” and the bioavailability (in vivo; dog, po) is reported as 63 to 74%. For the same compound, the Tmax (in vivo; mouse, rat, dog, monkey) was 4 to 8 h, the half-life (in vivo; mouse, rat, dog, monkey) was 9.41 to 20.9 h and the volumes of distribution (in vivo; mouse, rat, dog, monkey, iv) was over 18 L/kg. For the same compound, the “oral bioavailability, in words” value (in vivo; po) was “orally bioavailable in mice, rats and dogs”, the IC50 (EphB4) was 1.4 ± 0.2 nM and the IC50 (IGF1R) was over 10000 nM. The IC50 (InsR) was over 26000 nM, the “deaths attributed to study drug” value [1] was “no deaths attributed to study drug” and the inhibition at 10 µM [2] was 6.85%. The IC50 (EphA2) was 1100 nM, the “Inhibition, 10 μM XL-647” value [3] was 5.02% and the “Inhibition, 10 μM XL-647” value [4] was 46.77%. The inhibition at 10 µM (Bradykinin, BK2) was 48.8% and the IC50 (EGFR WT (pCMV/Lx-1)) was 12 nM.
